Test [1] has as its target T1, Tyrosyl-DNA phosphodiesterase 2 (Homo sapiens, UniProt O95551).
T1 sequence (O95551 whole entry): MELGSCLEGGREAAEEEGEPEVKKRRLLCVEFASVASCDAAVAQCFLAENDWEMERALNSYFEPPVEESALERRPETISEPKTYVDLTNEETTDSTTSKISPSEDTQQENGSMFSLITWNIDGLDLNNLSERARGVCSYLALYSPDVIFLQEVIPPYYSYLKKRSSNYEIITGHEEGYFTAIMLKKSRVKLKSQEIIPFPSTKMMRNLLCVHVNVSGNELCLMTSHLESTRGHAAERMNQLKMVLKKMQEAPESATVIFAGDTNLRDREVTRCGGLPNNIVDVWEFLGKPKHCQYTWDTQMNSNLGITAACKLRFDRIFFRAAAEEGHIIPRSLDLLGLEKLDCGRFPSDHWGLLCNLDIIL
Description: Inhibition of human recombinant TDP2 using alpha32P-cordycepin-3'-labeled TY19 as substrate after 15 mins by PAGE method.

The target of test [2] is T2, Tyrosyl-DNA phosphodiesterase 2 (Mus musculus, UniProt Q9JJX7).
T2 sequence (Q9JJX7 whole entry): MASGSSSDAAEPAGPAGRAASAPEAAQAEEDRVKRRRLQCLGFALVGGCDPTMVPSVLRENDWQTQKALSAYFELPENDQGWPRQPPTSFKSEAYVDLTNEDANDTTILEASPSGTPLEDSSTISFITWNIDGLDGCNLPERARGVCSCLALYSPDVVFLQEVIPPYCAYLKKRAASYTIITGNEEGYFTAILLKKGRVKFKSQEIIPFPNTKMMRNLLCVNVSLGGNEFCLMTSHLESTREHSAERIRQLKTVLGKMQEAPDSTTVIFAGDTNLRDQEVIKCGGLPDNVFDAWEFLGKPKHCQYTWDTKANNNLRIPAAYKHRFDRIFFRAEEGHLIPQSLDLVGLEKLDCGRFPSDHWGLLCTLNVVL
Briefly: Inhibition of mouse recombinant TDP2 using alpha32P-cordycepin-3'-labeled TY19 as substrate after 15 mins by PAGE method.

For test [3], the target named is T3, Tyrosyl-DNA phosphodiesterase 2 (Danio rerio, UniProt Q5XJA0).
T3 sequence (Q5XJA0 whole entry): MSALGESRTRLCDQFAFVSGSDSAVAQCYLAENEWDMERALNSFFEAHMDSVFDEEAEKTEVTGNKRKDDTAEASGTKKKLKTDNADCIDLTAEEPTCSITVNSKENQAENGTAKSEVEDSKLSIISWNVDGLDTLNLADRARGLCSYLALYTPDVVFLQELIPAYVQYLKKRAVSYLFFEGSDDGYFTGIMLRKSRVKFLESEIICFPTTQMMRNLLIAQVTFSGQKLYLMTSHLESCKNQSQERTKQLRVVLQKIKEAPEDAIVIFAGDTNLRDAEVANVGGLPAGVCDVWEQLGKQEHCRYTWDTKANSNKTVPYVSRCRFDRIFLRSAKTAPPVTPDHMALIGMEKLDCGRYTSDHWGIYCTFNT
Description: Inhibition of zebra fish recombinant TDP2 using alpha32P-cordycepin-3'-labeled TY19 as substrate after 15 mins by PAGE method.

Test [4] has as its target T4, Tyrosyl-DNA phosphodiesterase 1 (Homo sapiens, UniProt Q9NUW8). Briefly: Inhibition of human recombinant TDP1 using 5'-[32P]-labeled N14Y as substrate after 15 mins by PAGE method.
Test [5] has as its target T5, Tyrosyl-DNA phosphodiesterase 2 (Homo sapiens) (UniProt O95551).
T5 sequence (whole entry): T1 sequence (O95551 whole entry)
Briefly: Inhibition of endogenous human TDP2 within whole cell extracts from human TDP2-complemented DT40 chicken cells using TY19 DNA as substrate after 15 mins by spectrophotometric analysis.

Test [6] concerns the target T1, Tyrosyl-DNA phosphodiesterase 2. Description: Inhibition of human TDP2.
For test [7], the target named is T4, Tyrosyl-DNA phosphodiesterase 1. Briefly: Effect on human TDP1 up to 200 uM.

Activity calls are given as the source filed them. The rule behind the calls is not given here.

T4 sequence (Q9NUW8 whole entry): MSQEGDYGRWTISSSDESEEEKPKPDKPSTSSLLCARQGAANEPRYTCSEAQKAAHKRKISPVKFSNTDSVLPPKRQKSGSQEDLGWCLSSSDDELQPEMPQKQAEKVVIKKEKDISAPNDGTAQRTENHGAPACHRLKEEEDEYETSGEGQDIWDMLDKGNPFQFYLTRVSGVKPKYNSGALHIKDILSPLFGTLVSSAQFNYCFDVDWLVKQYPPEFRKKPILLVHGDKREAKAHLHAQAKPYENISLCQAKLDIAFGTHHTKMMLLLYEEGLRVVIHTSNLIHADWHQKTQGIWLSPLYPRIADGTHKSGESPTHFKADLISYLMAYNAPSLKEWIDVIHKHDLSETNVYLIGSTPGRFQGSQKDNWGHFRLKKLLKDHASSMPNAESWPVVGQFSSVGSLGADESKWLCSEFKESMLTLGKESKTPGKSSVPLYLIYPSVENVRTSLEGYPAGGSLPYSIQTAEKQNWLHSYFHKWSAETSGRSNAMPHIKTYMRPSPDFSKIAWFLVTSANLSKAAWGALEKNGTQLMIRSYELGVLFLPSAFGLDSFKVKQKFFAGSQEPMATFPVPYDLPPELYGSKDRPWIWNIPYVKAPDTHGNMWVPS

For `O=C(Cc1ccccc1)NC(CSSCC(NC(=O)Cc1ccccc1)C(=O)O)C(=O)O` (stereo not given), the IC50 (commonly the concentration needed to halve the response being measured) in test [1] is 9 µM; in test [2] it was > 111 µM; in test [3], 20 µM; in test [4], > 111 µM. Moreover, the inhibition entry in test [5] is “Active”.

Consider `O=C(NC(CSSCC(NC(=O)c1ccccc1)C(=O)O)C(=O)O)c1ccccc1` (stereo not given), for which the figures for the IC50 in test [1] and in test [3] were 4.1 µM and 15 µM, respectively. In test [5], the inhibition entry is “Active”.

In test [6], `COc1ccc(CC2C(=O)N(c3ccc([N+](=O)[O-])cc3)N=C2C(=O)O)cc1Oc1ccc(F)cc1` (stereo not given) displayed an IC50 of 12 µM. Further, the result in test [7] was inactive.

As to `N#CCCN(CCC#N)c1ccc(/C=C2\C(=O)N(c3ccc(S(=O)(=O)O)cc3)N=C2C(=O)O)cc1`, the half-maximal inhibitory concentration (IC50) in test [1] is 3.5 µM; in test [2] it was 15 µM; in test [3] it was 5.2 µM; in test [4], > 111 µM. For the same compound, in test [5], the inhibition result was “Active”.

The record behind these values is ChEMBL document CHEMBL3813620, “Discovery of selective inhibitors of tyrosyl-DNA phosphodiesterase 2 by targeting the enzyme DNA-binding cleft” (Bioorg Med Chem Lett, 2016).
